{
  "source": "paper PMC9561151",
  "about": "“Structural studies of the phosphoribosyltransferase involved in cobamide biosynthesis in methanogenic archaea and cyanobacteria” (Scientific Reports, 2022)",
  "molecules": {"B1": {"name": "Methanocaldococcus jannaschii nicotinate mononucleotide:base phosphoribosyltransferase (MjCobT) (enzyme)", "chain": "MSIIAINENGFLDKIKGRNPLFTCVISSIETTLSIPISGVHRDVIKYTPSADVELVFYGKSLTLKTPPIDATGSPTPATITRACVELKNIKNLHIDAGAFVKPKIPFIEIDEKPTGRIEEGKAMNNSKELYMKGYLLGKNLDAELLIVGESVPGGTTTALGVLLGLGYDAEGKVSSGSINNPHELKIKVVREGLKKAGINEKSSVFDVLNAVGDKMMPVVAGLAISFAERNKPVILAGGTQMSAVLAVIKEINKKVLDKNLIAIGTTEFVLNDKKGDLKGIVEQIGNVPVLASKFYFEKAKIEGLKNYCKGSVKEGVGAGGIAVYSIVNDLEPTKIREFIENKFYEWYKE", "notes": "CobT (NaMN:base phosphoribosyltransferase) of Methanocaldococcus jannaschii; the modelled chain runs from Met 1 to Tyr 348; also called PRTase from Methanocaldococcus jannaschii; source: E. coli BL21-CodonPlus, purified (80 °C heat step, Ni-NTA, rTEV cleavage, second Ni-NTA); not shown: His6, N-terminal, cleaved"}},
  "key": {"[1]": {"molecular_target": "T1, MjCobT (Methanocaldococcus jannaschii, UniProt Q58993)", "T1 construct": "gene MJ1598; expressed in E. coli BL21-CodonPlus from pTEV5; N-terminal His6 tag cut with rTEV; Met 1 to Tyr 348 modelled; dimer", "experiment": "turnover in crystal, product seen by X-ray", "format": "biochemical", "settings": "free base not seen in the structure"}, "[2]": {"molecular_target": "T1, MjCobT", "experiment": "X-ray crystal structure of complex, […] Å", "format": "binding"}, "[3]": {"molecular_target": "T1, MjCobT", "experiment": "X-ray crystal structure of complex, […] Å", "format": "binding", "settings": "formed in the crystal from NaMN and adenine; active site with nicotinic acid"}, "[4]": {"molecular_target": "the molecule itself", "experiment": "crystal structure; three crystal forms of MjCobT grown at room temperature: apo (P41212, 1 subunit per asymmetric unit), with NaMN and α-RP + nicotinic acid (P21, 2 subunits), with α-AMP + nicotinic acid (P21, 2 subunits); molecular replacement with 3L0Z"}},
  "data": [
    {"molecule": "Cc1cc2nc[nH]c2cc1C", "note": "[DMB]", "values": [
      {"measurement": "turnover in crystal, product seen by X-ray", "setting": "[1]; 1 mM DMB in crystallization, NaMN soak overnight", "value": "During that time the enzyme catalyzed a transferase reaction"}
    ]},
    {"molecule": "O=C([O-])c1ccc[n+]([C@@H]2O[C@H](COP(=O)(O)O)[C@@H](O)[C@H]2O)c1", "note": "[NaMN]", "values": [
      {"measurement": "X-ray crystal structure of complex, 2.3 Å", "setting": "[2]; crystals grown with DMB, soaked overnight in 1 mM NaMN, NaMN in active site of chain A", "value": "NaMN lies at the base of the active site for chain A"}
    ]},
    {"molecule": "Nc1ncnc2[nH]cnc12", "note": "[adenine]", "values": [
      {"measurement": "turnover in crystal, product seen by X-ray", "setting": "[1]; 1 mM adenine and 1 mM NaMN soak, pH 8.5", "value": "the reaction product was prepared in situ by soaking the crystals in NaMN and adenine"}
    ]},
    {"molecule": "Nc1ncnc2ncn([C@H]3O[C@H](COP(=O)(O)O)[C@@H](O)[C@H]3O)c12", "note": "[α-AMP]", "values": [
      {"measurement": "X-ray crystal structure of complex, 1.4 Å", "setting": "[3]", "value": "the crystals were highly ordered and the position of α-AMP is unequivocal"}
    ]},
    {"molecule": "Cc1cc2ncn([C@H]3O[C@H](COP(=O)(O)O)[C@@H](O)[C@H]3O)c2cc1C", "note": "[α-RP]", "values": [
      {"measurement": "X-ray crystal structure of complex, 2.3 Å", "setting": "[2]; formed in the crystal from NaMN and DMB, active site of chain B with nicotinic acid, occupancy below 1.0", "value": "One subunit contains NaMN, whereas the second includes α-RP and nicotinic acid"}
    ]},
    {"molecule": "B1", "values": [
      {"measurement": "stoichiometry N", "setting": "[4]", "value": 2}
    ]}
  ]
}
